# From patent publication US20070104649A1, “Optically fluorescent nanoparticles” (priority 2005, published 2007)
# Assay: UV-Vis absorption spectra of co-aggregate (J-aggregate) formation
# Assay type: physicochemical
# Conditions: non-aggregated dye
# Procedure: An aqueous solution of 0.1% (w/v) PEI (1.8, 10, 70, or 750 kDa) is gently stirred, and an aqueous solution of 0.02% (w/v) TITCC is instantly added. This composition is further agitated at about 4° C. for about 30-45 minutes under UV protection. The aggregation progress is monitored by UV-Vis spectra starting from 900 nm down to 600 nm.
# This is confirmed by the absence of the starting wavelength of 756 nm of the pure dye, and by the new wavelength maximum at approximately 800 nm from the J-aggregates. In case of 100 and 125% surplus of PEI, the two wavelength maxima indicate that the dye is only partially bound as J-aggregate. Therefore, the wavelength of the pure dye and the wavelength maximum of the J-aggregates can be detected side by side. All measured samples contained the same concentration of dye. The absorption is reduced due to the quenching effects in the J-aggregates. UV-Vis spectra were recorded by UV-2401-PC spectrophotometer (Shimadzu Corp.).
# This may be due to a more compact dye-polymer-complex if fewer cationic charges for stabilisation are available. Vice versa, the complexes are less compact having a greater amount of polymer which results in a smaller shift to approximately 795 nm.
compound,measurement,value
"CC(C=CC=C1N(CCS(=O)(=O)[O-])c2ccc(S(=O)(=O)[O-])cc2C1(C)C)=CC=CC1=[N+](CCS(=O)(=O)[O-])c2ccc(S(=O)(=O)[O-])cc2C1(C)C.[Na+].[Na+].[Na+] [TITCC, trisodium-3,3-dimethyl-2-{4-methyl-7-[3,3-dimethyl-5-sulfonato-1-(2-sulfonatoethyl)-3H-indolium-2-yl]hepta-2,4,6-trien-1-ylidene}-1-(2-sulfonatoethyl)-2,3-dihydro-1H-indole-5-sulfonate, inner salt]",absorption wavelength maximum of the pure dye,756 nm
